Data reported in patent KR20170021349A, “다양한 질병의 치료를 위한 jnk 신호 전달 경로의 세포 투과성 펩타이드 억제자의 새로운 용도” (자이겐 인플라메이션 리미티드, priority 2014, dated 2017).
Entries after “also recorded” stand apart in the source; their conditions may differ.

Assays:
[1] = system: endogenous JNK in HepG2 cells; assay: AlphaScreen kinase assay of endogenous IL-1-induced JNK activity; assay type: cell-based; settings: IL-1-dependent JNK activity, Fig. 3d
[2] = system: human foreskin fibroblasts (HFFs); assay: Neutral Red cytotoxicity assay; assay type: cell-based; settings: 1, 2, 5 μM, 24 h
C57BL/6 mice = assay: Bleomycin-induced acute lung inflammation (COPD model); assay type: in vivo, mouse
hAPP Tg mice = assay: hAPP transgenic mouse model of Alzheimer's disease; assay type: in vivo
Sprague-Dawley rats [3] = assay: STZ diabetic nephropathy model, chronic administration; assay type: in vivo, rat; settings: 1, 2, 4 mg/kg i.v. weekly, 9 weeks
human islets = assay: Human islets, 24 h hypoxia; assay type: cell-based; settings: 100 μM
[4] = system: Huh7 tumours in nude mice; assay: Huh7 human liver cancer xenograft; assay type: in vivo, mouse; settings: 5 mg/kg i.p. twice weekly, 4 weeks
[5] = system: Hep G2 tumours in SWISS nude mice; assay: Orthotopic Hep G2 human liver carcinoma, dose/response; assay type: in vivo, mouse
[6] = system: PC-3 tumours in Balb/c nude mice; assay: Subcutaneous PC-3 human prostate tumour; assay type: in vivo, mouse; settings: 0.1 and 1 mg/kg/inj Q4Dx4, dose-dependent, more marked at 1 mg/kg
[7] = system: Sprague-Dawley albino rats; assay: Light-induced photoreceptor damage (AMD model), ERG and ONL thickness; assay type: in vivo, rat
Brown Norway rats = assay: STZ diabetic retinopathy, repeated subconjunctival administration; assay type: in vivo, rat
Sprague-Dawley rats [8] = assay: Bilateral renal ischemia reperfusion, histology; assay type: in vivo, rat
[9] = system: female Sprague-Dawley rats; assay: Cystometry in conscious rats with CYP-induced cystitis; assay type: in vivo, rat; settings: 2 mg/kg i.v.; 30-60 min post-dose; P<0.01
primary macrophages = assay: Uptake into primary cultured macrophages (specific antibody); assay type: cell-based; settings: Fig. 24

In the case of “NH2-DQSRPVQPFLNLTTPRKPRPPRRRQRRKKRG-COOH (H-DQSRPVQPFLNLTTPRKPRPPRRRQRRKKRG-OH; also: D-amino acids (positions not given here)) [XG-102]”, the “inhibition of JNK activity compared with L-JNKI” value [1] is reported as “보다 효과적으로 JNK 활성을 억제한다”, the cytotoxicity [2] is reported as “관찰되지 않았으며” and the “neutrophil recruitment or other cell types in BAL” value (C57BL/6 mice; 0.001 mg/kg s.c. single dose, 24 h) is reported as “영향을 미치지 않았다”. For the same substance, the “neutrophil recruitment and total cell number in BAL” value (C57BL/6 mice; 0.1 mg/kg s.c. single dose, 24 h) was “현저하게 감소시켰다”, the “lung MPO level” value (C57BL/6 mice; MPO not induced by bleomycin) was “영향을 주지 않았다” and the “TNF level in BALF” value (C57BL/6 mice; TNF very low after BLM) was “감소하는 경향이 관찰되었다”. The “spatial learning in Morris Water Maze” value (hAPP Tg mice; 0.1 mg/kg every 2 wk or 10 mg/kg every 3 wk s.c., 4 months) was “크게 영향을 받지 않았다”, the “brain Aβ1-42 level, Triton X-100 fraction” value (hAPP Tg mice; 0.1 mg/kg, p<0.05 vs vehicle) was “현저한 감소를 나타내었다” and the “cortical 6E10 IR plaque load” value (hAPP Tg mice; 10 mg/kg vs vehicle) was “비히클에 비해 증가하였으나”. For the same substance, the “brain homogenate Aβ1-40 levels” value (hAPP Tg mice; ELISA, 4 fractions) was “영향을 미치지 않았다”, the “CSF Aβ1-40 and Aβ1-42 levels” value (hAPP Tg mice; p<0.01 at 10 mg/kg, <0.05 at 0.1 mg/kg) was “현저하게 감소되었다” and the “number and area % of hippocampal ThioflavinS-positive plaques” value (hAPP Tg mice; p<0.05 at 10 mg/kg, p<0.01 at 0.1 mg/kg) was “음성적인 투여량 의존적 감소를 유도함”. For the same substance, the “body weight vs vehicle-treated STZ rats” value (Sprague-Dawley rats [3]) was “차이를 나타내지 않았다”, the hypoxia-induced islet apoptosis (human islets) was “세포 자멸을 감소시키는” and the islet necrosis (human islets; normoxia and hypoxia) was “괴사를 감소시키는”. The tumour growth [4] was “종양 성장을 현저하게 감소시켰다”, the T/C ([5]; 0.1 mg/kg) was 123% and the “tumour mass in liver, per mouse sacrificed at D171 (microscopy)” value ([5]; 0.1 mg/kg, 2 mice) was “간에 종양 (1.3cm); also recorded: 검출된 종양 없음”. For the same substance, the “mean survival time (as headed)” value ([5]; 0.1 mg/kg/inj i.v. Q4Dx4, vehicle 86) was 105 days, the T/C ([5]; 1 mg/kg) was 161% and the “tumour mass in liver, per mouse sacrificed at D171 (microscopy)” value ([5]; 1 mg/kg, 3 mice (2 without tumour)) was “검출된 종양 없음; also recorded: 간에 종양 (1.9cm)”. For the same substance, the “mean survival time (as headed)” value ([5]; 1 mg/kg/inj i.v. Q4Dx4) was 138 days, the T/C ([5]; 5 mg/kg) was 137% and the “tumour mass in liver, per mouse sacrificed at D171 (microscopy)” value ([5]; 5 mg/kg, 3 mice) was “검출된 종양 없음 검출된 종양 없음 검출된 종양 없음”. The “mean survival time (as headed)” value ([5]; 5 mg/kg/inj i.v. Q4Dx4) was 118 days, the “tolerance (body weight)” value ([5]; 0.1-5 mg/kg) was “내약성이 우수함” and the “mean tumour volume over time” value [6] was “종양 부피의 감소”. For the same substance, the “b-wave recovery (% of baseline)” value ([7]; 1.5 μg/eye IVT, day 9) was 55.3%, the “a-wave recovery (% of baseline)” value ([7]; 1.5 μg/eye IVT, day 16) was 47.5% and the “b-wave recovery (% of baseline)” value ([7]; 1.5 μg/eye IVT, day 16) was 61.7%. The “a-wave recovery (% of baseline)” value ([7]; 1.5 μg/eye IVT, day 23) was 48.3%, the “b-wave recovery (% of baseline)” value ([7]; 1.5 μg/eye IVT, day 23) was 73.5% and the “ONL thickness loss (% vs non-induced control eyes)” value ([7]; 1.5 μg/eye ivt) was 39%. The ONL thickness ([7]; 1.5 μg/eye ivt, day 23, p<0.05 vs vehicle) was 24.89 ± 4.01 μm, the “b-wave recovery (% of baseline)” value ([7]; 15 μg/eye IVT, day 9) was 60.6% and the “a-wave recovery (% of baseline)” value ([7]; 15 μg/eye IVT, day 16) was 51.1%. The “b-wave recovery (% of baseline)” value ([7]; 15 μg/eye IVT, day 16) was 62.3%, the “a-wave recovery (% of baseline)” value ([7]; 15 μg/eye IVT, day 23) was 41.8% and the “b-wave recovery (% of baseline)” value ([7]; 15 μg/eye IVT, day 23) was 56.5%. The “ONL thickness loss (% vs non-induced control eyes)” value ([7]; 15 μg/eye ivt) was 40%, the ONL thickness ([7]; 15 μg/eye ivt, day 23, p<0.05 vs vehicle) was 24.42 ± 5.99 μm and the “a-wave recovery (% of baseline)” value ([7]; 150 μg/eye IVT, day 9 (vehicle 5.7)) was 23.6%. The “b-wave recovery (% of baseline)” value ([7]; 150 μg/eye IVT, day 9 (vehicle 15)) was 31.9%, the “a-wave recovery (% of baseline)” value ([7]; 150 μg/eye IVT, day 16 (vehicle 13.2)) was 24.1% and the “b-wave recovery (% of baseline)” value ([7]; 150 μg/eye IVT, day 16 (vehicle 24.8)) was 38.9%. For the same substance, the “a-wave recovery (% of baseline)” value ([7]; 150 μg/eye IVT, day 23 (vehicle 22.5)) was 23.7%, the “b-wave recovery (% of baseline)” value ([7]; 150 μg/eye IVT, day 23 (vehicle 30.6)) was 37.1% and the “ONL thickness loss (% vs non-induced control eyes)” value ([7]; 150 μg/eye ivt) was 53%. The ONL thickness ([7]; 150 μg/eye ivt, day 23) was 18.95 ± 9.17 μm, the “decline of contrast threshold” value (Brown Norway rats; 200 μg/eye) was “현저하게 지연되었다” and the “ocular irritation (chemosis, hyperemia, discharge)” value (Brown Norway rats; 2, 20, 200 μg/eye every 2 weeks subconj.) was “안구 자극이 관찰되지 않았다”. For the same substance, the “retinal cytokine levels (all 23)” value (Brown Norway rats; 20 or 200 μg/eye) was “BLQ”, the “progression of visual acuity loss (spatial frequency threshold)” value (Brown Norway rats; 20 or 200 μg/eye, days 57-99) was “현저하게 지연시켰다” and the “contrast threshold vs vehicle” value (Brown Norway rats; all doses, day 99) was “현저하게 높은 대조 역치 값을 가졌으며”. For the same substance, the “visual acuity score vs vehicle-treated STZ group” value (Brown Norway rats; all doses, day 113 (significant at 2 and 200 μg/eye)) was “높은 시력 점수를 보였고”, the “mean tubular epithelial degeneration/necrosis score (0-4)” value (Sprague-Dawley rats [8]; 2 mg/kg i.v. 20 min after reperfusion, 24 h, IR/vehicle 3.45 ± 0.52) was 2.67 ± 0.65 and the “animals with degeneration/necrosis score 2” value (Sprague-Dawley rats [8]; 2 mg/kg i.v., IR/vehicle 0/11) was 5/12. For the same substance, the “mean basophilic tubules score (0-4)” value (Sprague-Dawley rats [8]; 2 mg/kg i.v., IR/vehicle 1.36 ± 0.67) was 1.33 ± 0.65, the “tubular cast score (0-4)” value (Sprague-Dawley rats [8]; 2 mg/kg i.v., IR/vehicle 3.00 ± 0.00) was 2.50 ± 0.52 and the “animals with degeneration/necrosis score 4” value (Sprague-Dawley rats [8]; 2 mg/kg i.v., IR/vehicle 5/11) was 1/12. The total tubular score (Sprague-Dawley rats [8]; 2 mg/kg i.v., IR/vehicle 7.82 ± 0.98) was 6.50 ± 0.80, the “intercontraction interval (ICI) and bladder capacity (BC) vs basal” value [9] was “현저하게 증가시켰다” and the “threshold pressure (ThP) vs basal” value [9] was “현저한 감소”. The “incorporation into primary macrophages” value (primary macrophages) was “강하게 병합된다”.
